Measured values reported in ChEMBL document CHEMBL1201862, “PubChem BioAssay data set” (2004).
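How tested: cells in 96-well plates exposed to compound for 48 hours at five concentrations. At the GI50, growth is halved.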 Active and inactive are the calls of the source. No stated cut-off is given here; in the data, active = GI50 up to about 1.1 µM and inactive = higher.

Tests used:
Assay in all cases: DTP human tumour cell line panel, 48 h
KM12 = tested on: KM12
786-0 = tested on: 786-0
COLO 205 = tested on: COLO 205
OVCAR-8 = tested on: OVCAR-8
HCT-116 = tested on: HCT-116
MDA-N = tested on: MDA-N
A549 = tested on: A549
NCI-H23 = tested on: NCI-H23
HT-29 = tested on: HT-29
OVCAR-3 = tested on: OVCAR-3
OVCAR-5 = tested on: OVCAR-5
EKVX = tested on: EKVX
NCI/ADR-RES = tested on: NCI/ADR-RES
HOP-92 = tested on: HOP-92
DU-145 = tested on: DU-145
UACC-62 = tested on: UACC-62
SK-OV-3 = tested on: SK-OV-3
OVCAR-4 = tested on: OVCAR-4
HL-60 = tested on: HL-60
TK-10 = tested on: TK-10

Measured: GI50

N#C/C(C(=O)Nc1ccc(Cl)cc1)=C(/N)N1CCOCC1
inactive: KM12 > 100 µM | 786-0 > 100 µM | COLO 205 > 100 µM | OVCAR-8 > 100 µM | HCT-116 > 100 µM | MDA-N 61.8 µM | A549 > 100 µM | NCI-H23 > 100 µM | HT-29 > 100 µM | OVCAR-3 96.8 µM | OVCAR-5 > 100 µM | EKVX > 100 µM | NCI/ADR-RES > 100 µM | HOP-92 > 100 µM | DU-145 94 µM | UACC-62 77.8 µM | SK-OV-3 > 100 µM

CC(=O)OCC1OC(N2C(=S)N[C@H]([C@@H](O)[C@H](O)[C@H](O)CO)[C@H]2O)C(OC(C)=O)C(OC(C)=O)C1OC(C)=O (some centres undefined)
inactive: KM12 > 100 µM | 786-0 > 100 µM | COLO 205 > 100 µM | OVCAR-4 > 100 µM | OVCAR-8 > 100 µM | HCT-116 > 100 µM | MDA-N > 100 µM | A549 > 100 µM | NCI-H23 > 100 µM | HT-29 > 100 µM | OVCAR-3 > 100 µM | OVCAR-5 > 100 µM | EKVX > 100 µM | NCI/ADR-RES > 100 µM | HOP-92 > 100 µM | DU-145 > 100 µM | UACC-62 > 100 µM | SK-OV-3 > 100 µM

O=C(Cn1cc(F)c(=O)[nH]c1=O)C12CC3CC(CC(C3)C1)C2
inactive: KM12 > 100 µM | 786-0 > 100 µM | COLO 205 > 100 µM | OVCAR-4 > 100 µM | HL-60 > 100 µM | OVCAR-8 > 100 µM | HCT-116 > 100 µM | MDA-N > 100 µM | A549 > 100 µM | NCI-H23 > 100 µM | TK-10 > 100 µM | HT-29 > 100 µM | OVCAR-3 > 100 µM | OVCAR-5 > 100 µM | EKVX > 100 µM | NCI/ADR-RES > 100 µM | DU-145 > 100 µM | UACC-62 > 100 µM | SK-OV-3 > 100 µM

[O-][Cl+3]([O-])([O-])O.c1ccc(C2=NN2c2ccccc2)cc1
inactive: KM12 7.41 µM | COLO 205 7.76 µM | OVCAR-4 > 100 µM | OVCAR-8 > 100 µM | MDA-N 4.27 µM | A549 7.96 µM | NCI-H23 85.7 µM | TK-10 > 100 µM | HT-29 29.3 µM | OVCAR-3 84.9 µM | OVCAR-5 > 100 µM | EKVX 92.7 µM | NCI/ADR-RES > 100 µM | HOP-92 > 100 µM | DU-145 5.89 µM | UACC-62 1.21 µM | SK-OV-3 > 100 µM

O=C(N/C(=C\c1ccccc1)c1nc2ccccc2c(=O)o1)c1ccccc1
inactive: KM12 7.96 µM | 786-0 41.7 µM | COLO 205 > 100 µM | OVCAR-4 > 88.5 µM | HL-60 > 100 µM | OVCAR-8 > 57.7 µM | HCT-116 > 55.3 µM | MDA-N > 53 µM | A549 > 100 µM | NCI-H23 46.3 µM | TK-10 > 100 µM | HT-29 > 100 µM | OVCAR-3 > 70.5 µM | OVCAR-5 > 88.9 µM | EKVX 57.3 µM | NCI/ADR-RES 33.4 µM | DU-145 > 76.7 µM | UACC-62 30.1 µM | SK-OV-3 59.2 µM

O=C(N/N=C(COc1ccccc1Cl)\N=C\c1cccnc1)c1ccncc1
inactive: KM12 > 100 µM | 786-0 > 100 µM | COLO 205 > 100 µM | OVCAR-4 > 100 µM | HL-60 > 100 µM | OVCAR-8 > 100 µM | HCT-116 > 100 µM | MDA-N > 100 µM | A549 > 100 µM | NCI-H23 > 100 µM | TK-10 > 100 µM | HT-29 > 100 µM | OVCAR-3 > 100 µM | OVCAR-5 > 100 µM | EKVX > 100 µM | NCI/ADR-RES > 100 µM | DU-145 > 100 µM | UACC-62 > 100 µM | SK-OV-3 > 100 µM

COC(=N)c1ncn(Cc2ccccc2)c1N
inactive: KM12 > 100 µM | 786-0 > 100 µM | COLO 205 > 100 µM | OVCAR-4 > 100 µM | OVCAR-8 > 100 µM | HCT-116 > 100 µM | MDA-N > 100 µM | A549 > 100 µM | NCI-H23 > 100 µM | TK-10 > 100 µM | HT-29 > 100 µM | OVCAR-3 > 100 µM | OVCAR-5 > 100 µM | EKVX > 100 µM | NCI/ADR-RES > 100 µM | HOP-92 > 100 µM | DU-145 > 100 µM | UACC-62 > 100 µM | SK-OV-3 > 100 µM

O=C1N(CN2CCOCC2)CN(CN2CCOCC2)C(=O)N1Cc1ccccc1
inactive: KM12 23.8 µM | 786-0 26.6 µM | COLO 205 20.1 µM | OVCAR-4 42.7 µM | OVCAR-8 19.2 µM | HCT-116 22.8 µM | MDA-N 18.2 µM | A549 40.4 µM | NCI-H23 17.9 µM | TK-10 > 100 µM | HT-29 20.3 µM | OVCAR-3 23.9 µM | OVCAR-5 > 100 µM | EKVX 38.5 µM | NCI/ADR-RES 23.1 µM | HOP-92 25.8 µM | DU-145 24.9 µM | UACC-62 22.2 µM | SK-OV-3 > 100 µM

COc1cc(CCN(C)C)cc(OC)c1OC
inactive: KM12 > 100 µM | COLO 205 > 100 µM | OVCAR-4 > 100 µM | HL-60 > 100 µM | OVCAR-8 > 100 µM | HCT-116 > 100 µM | MDA-N > 100 µM | A549 > 100 µM | NCI-H23 > 100 µM | TK-10 > 100 µM | HT-29 > 100 µM | OVCAR-3 > 100 µM | OVCAR-5 > 100 µM | EKVX > 100 µM | NCI/ADR-RES > 100 µM | HOP-92 > 100 µM | DU-145 > 100 µM | UACC-62 > 100 µM | SK-OV-3 > 100 µM

CC1=CC(=O)N(n2c(C)n[nH]c2=O)C1=O
inactive: KM12 > 100 µM | 786-0 > 100 µM | COLO 205 > 100 µM | OVCAR-4 > 100 µM | OVCAR-8 > 100 µM | HCT-116 > 100 µM | MDA-N > 100 µM | A549 > 100 µM | NCI-H23 > 100 µM | TK-10 > 100 µM | HT-29 > 100 µM | OVCAR-3 > 100 µM | OVCAR-5 > 100 µM | EKVX > 100 µM | NCI/ADR-RES > 100 µM | HOP-92 > 100 µM | DU-145 > 100 µM | UACC-62 > 100 µM | SK-OV-3 > 100 µM

COc1ccc2nc(-c3ccc(O)cc3)sc2c1
inactive: KM12 26.5 µM | 786-0 15.6 µM | COLO 205 21.5 µM | OVCAR-4 28.5 µM | HL-60 24 µM | OVCAR-8 20.7 µM | HCT-116 17.5 µM | MDA-N 22.5 µM | A549 36.6 µM | NCI-H23 20.8 µM | TK-10 34.7 µM | HT-29 20 µM | OVCAR-3 19.6 µM | OVCAR-5 17.7 µM | EKVX 18.1 µM | NCI/ADR-RES 29.8 µM | DU-145 34.7 µM | UACC-62 21.7 µM | SK-OV-3 32.5 µM
